Reference: ChEMBL document CHEMBL1132267, “Synthesis and antibacterial properties of beta-diketone acrylate bioisosteres of pseudomonic acid A” (Bioorg Med Chem Lett, 1999)
Converted amounts (≈) assume the structure as drawn.

Legend:
Homo sapiens = assay: The compound was tested for its percentage serum binding affinity in human […]; format: organism-based
Mus musculus [1] = assay: The area under curve in vivo in mouse blood level after oral administration at dose 50 mk/kg e-1; format: ADME, organism-based
[2] = test system: Isoleucine--tRNA ligase (Streptococcus pneumoniae); assay: In vitro antibacterial activity against isoleucyl-tRNA synthetase from Streptococcus pneumoniae PU7
[3] = test system: Isoleucine--tRNA ligase (Moraxella catarrhalis); assay: In vitro antibacterial activity against isoleucyl-tRNA synthetase from Moraxella catarrhalis 1502
Mus musculus [4] = assay: Concentration required to protect 50% of the mice from death after s.c. administration of compound tested in vivo; format: functional
[5] = test system: Isoleucine--tRNA ligase (Haemophilus influenzae); assay: In vitro antibacterial activity against isoleucyl-tRNA synthetase from Haemophilus influenzae Q1
Mus musculus [6] = assay: Concentration required to protect 50% of the mice from death after oral administration of compound tested in vivo; format: functional
Mus musculus [7] = assay: The compound was tested for its percentage serum binding affinity in mouse […]; format: functional
Mus musculus [8] = assay: The area under curve in vivo in mouse blood level after subcutaneous administration at dose 50 mk/kg e-1; format: ADME, organism-based; conditions: sc
[9] = test system: Isoleucine--tRNA ligase (Streptococcus pyogenes); assay: In vitro antibacterial activity against isoleucyl-tRNA synthetase from Streptococcus pyogenes CN10
[10] = molecular target: T1, Isoleucine--tRNA ligase (Staphylococcus aureus) (UniProt P41972); assay: In vitro antibacterial activity against isoleucyl-tRNA synthetase from Staphylococcus aureus Oxford; format: functional
T1 sequence (whole entry): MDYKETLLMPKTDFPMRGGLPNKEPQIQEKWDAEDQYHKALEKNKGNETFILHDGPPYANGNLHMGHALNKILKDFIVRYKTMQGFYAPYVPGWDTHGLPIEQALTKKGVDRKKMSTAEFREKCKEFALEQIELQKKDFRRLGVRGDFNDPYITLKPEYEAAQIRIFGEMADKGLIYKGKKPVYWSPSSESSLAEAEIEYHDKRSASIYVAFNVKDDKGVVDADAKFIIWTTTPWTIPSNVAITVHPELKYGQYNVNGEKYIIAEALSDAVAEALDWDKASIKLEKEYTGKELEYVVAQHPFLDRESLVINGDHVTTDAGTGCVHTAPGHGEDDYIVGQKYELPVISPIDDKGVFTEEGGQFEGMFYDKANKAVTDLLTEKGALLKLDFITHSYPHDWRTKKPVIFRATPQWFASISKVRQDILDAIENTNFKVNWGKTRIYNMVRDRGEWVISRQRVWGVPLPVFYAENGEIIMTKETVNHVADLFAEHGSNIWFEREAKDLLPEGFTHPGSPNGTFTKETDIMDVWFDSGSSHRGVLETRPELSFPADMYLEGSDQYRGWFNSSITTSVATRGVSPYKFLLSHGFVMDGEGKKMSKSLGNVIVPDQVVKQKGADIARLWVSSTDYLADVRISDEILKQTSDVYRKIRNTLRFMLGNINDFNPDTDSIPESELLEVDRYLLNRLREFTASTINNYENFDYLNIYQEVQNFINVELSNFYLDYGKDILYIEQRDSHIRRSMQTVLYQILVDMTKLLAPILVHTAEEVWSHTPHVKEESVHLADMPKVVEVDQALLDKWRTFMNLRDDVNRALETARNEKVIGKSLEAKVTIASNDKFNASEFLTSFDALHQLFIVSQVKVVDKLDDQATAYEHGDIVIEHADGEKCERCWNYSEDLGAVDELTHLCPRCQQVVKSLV

Streptococcus pyogenes = assay: In vitro antibacterial activity against Streptococcus pyogenes CN10; format: functional
Streptococcus pneumoniae = assay: In vitro antibacterial activity against Streptococcus pneumoniae PU7; format: functional
Moraxella catarrhalis = assay: In vitro antibacterial activity against Moraxella catarrhalis 1502; format: functional
Haemophilus influenzae = assay: In vitro antibacterial activity against Haemophilus influenzae Q1; format: functional
Staphylococcus aureus = assay: In vitro antibacterial activity against Staphylococcus aureus Oxford; format: functional

SMILES | MIC (Streptococcus pyogenes) | MIC (Streptococcus pneumoniae) | MIC (Moraxella catarrhalis) | MIC (Haemophilus influenzae) | MIC (Staphylococcus aureus) | Bound (Homo sapiens) | AUC (Mus musculus [1]) | MIC [2] | MIC [3] | CD50 (Mus musculus [4]) | MIC [5] | CD50 (Mus musculus [6]) | Bound (Mus musculus [7]) | AUC (Mus musculus [8]) | MIC [9] | MIC [10]
COc1ccc(C(=O)CC(=O)C[C@@H]2OC[C@H](C[C@@H]3O[C@H]3[C@@H](C)[C@H](C)O)[C@@H](O)[C@H]2O)cc1 |  |  |  |  |  | 75% | 5920 ng·h/mL | 0.25 µg/mL (≈ 0.573 µM) | 0.25 µg/mL (≈ 0.573 µM) | 3.8 mg/kg | 0.06 µg/mL (≈ 0.137 µM) | 28 mg/kg | 51% | 14900 ng·h/mL | 0.25 µg/mL (≈ 0.573 µM) | 0.5 µg/mL (≈ 1.15 µM)
CCOC(OCC)c1ccc(C(=O)CC(=O)C[C@@H]2OC[C@H](C[C@@H]3O[C@H]3[C@@H](C)[C@H](C)O)[C@@H](O)[C@H]2O)cc1 | 0.5 µg/mL (≈ 0.983 µM) | 1 µg/mL (≈ 1.97 µM) | 0.5 µg/mL (≈ 0.983 µM) | 1 µg/mL (≈ 1.97 µM) | 1 µg/mL (≈ 1.97 µM) |  |  |  |  |  |  |  |  |  |  | 
COc1ccc(/C=C/C(=O)C[C@@H]2OC[C@H](C[C@@H]3O[C@H]3[C@@H](C)[C@H](C)O)[C@@H](O)[C@H]2O)cc1 | 8 µg/mL (≈ 19 µM) | 8 µg/mL (≈ 19 µM) | 16 µg/mL (≈ 38 µM) | 1 µg/mL (≈ 2.38 µM) | 128 µg/mL (≈ 304 µM) |  |  |  |  |  |  |  |  |  |  | 
C[C@H]([C@@H]1O[C@H]1C[C@H]1CO[C@@H](CC(=O)CC(=O)c2ccc(F)cc2)[C@H](O)[C@@H]1O)[C@H](C)O |  |  |  |  |  | 80% | 4930 ng·h/mL | 0.13 µg/mL (≈ 0.306 µM) | 0.5 µg/mL (≈ 1.18 µM) | 12 mg/kg | 0.06 µg/mL (≈ 0.141 µM) | 19 mg/kg |  | 6800 ng·h/mL | 0.25 µg/mL (≈ 0.589 µM) | 0.5 µg/mL (≈ 1.18 µM)
C[C@H]([C@@H]1O[C@H]1C[C@H]1CO[C@@H](CC(=O)CC(=O)c2ccc(N(C)C)nc2)[C@H](O)[C@@H]1O)[C@H](C)O |  |  |  |  |  | 84% | 7180 ng·h/mL | 0.5 µg/mL (≈ 1.11 µM) | 1 µg/mL (≈ 2.22 µM) | 12 mg/kg | 0.06 µg/mL (≈ 0.133 µM) | 23 mg/kg | 66% | 13300 ng·h/mL | 1 µg/mL (≈ 2.22 µM) | 1 µg/mL (≈ 2.22 µM)
COc1ccc(C(=O)/C=C/C[C@@H]2OC[C@H](C[C@@H]3O[C@H]3[C@@H](C)[C@H](C)O)[C@@H](O)[C@H]2O)cc1 | 0.5 µg/mL (≈ 1.19 µM) | 0.25 µg/mL (≈ 0.595 µM) | 2 µg/mL (≈ 4.76 µM) | 0.13 µg/mL (≈ 0.309 µM) | 1 µg/mL (≈ 2.38 µM) |  |  |  |  |  |  |  |  |  |  | 
C/C(=C\C(=O)OCCCCCCCCC(=O)O)C[C@@H]1OC[C@H](C[C@@H]2O[C@H]2[C@@H](C)[C@H](C)O)[C@@H](O)[C@H]1O [MUPIROCIN] | 0.13 µg/mL (≈ 0.26 µM) | 0.13 µg/mL (≈ 0.26 µM) | 0.13 µg/mL (≈ 0.26 µM) | 0.06 µg/mL (≈ 0.12 µM) | 0.13 µg/mL (≈ 0.26 µM) |  |  |  |  |  |  |  |  |  |  | 
COc1ccc(C(=O)/C=C(\C)C[C@@H]2OC[C@H](C[C@@H]3O[C@H]3[C@@H](C)[C@H](C)O)[C@@H](O)[C@H]2O)cc1 |  |  |  |  |  | 96% | 1770 ng·h/mL | 0.25 µg/mL (≈ 0.575 µM) | 0.25 µg/mL (≈ 0.575 µM) | 12 mg/kg | 0.03 µg/mL (≈ 0.069 µM) | 18 mg/kg | 79% | 5600 ng·h/mL | 0.25 µg/mL (≈ 0.575 µM) | 0.5 µg/mL (≈ 1.15 µM)
CCCCC(=O)CC(=O)C[C@@H]1OC[C@H](C[C@@H]2O[C@H]2[C@@H](C)[C@H](C)O)[C@@H](O)[C@H]1O | 2 µg/mL (≈ 5.17 µM) | 8 µg/mL (≈ 20.7 µM) | 2 µg/mL (≈ 5.17 µM) | 0.5 µg/mL (≈ 1.29 µM) | 8 µg/mL (≈ 20.7 µM) |  |  |  |  |  |  |  |  |  |  | 

The next lines start with results.

MIC (Streptococcus pyogenes) | MIC (Streptococcus pneumoniae) | MIC (Moraxella catarrhalis) | MIC (Haemophilus influenzae) | MIC (Staphylococcus aureus) | SMILES | Bound (Homo sapiens) | AUC (Mus musculus [1]) | MIC [2] | MIC [3] | CD50 (Mus musculus [4]) | MIC [5] | CD50 (Mus musculus [6]) | Bound (Mus musculus [7]) | AUC (Mus musculus [8]) | MIC [9] | MIC [10]
1 µg/mL (≈ 2.44 µM) | 1 µg/mL (≈ 2.44 µM) | 0.5 µg/mL (≈ 1.22 µM) | 0.13 µg/mL (≈ 0.317 µM) | 4 µg/mL (≈ 9.74 µM) | C[C@H]([C@@H]1O[C@H]1C[C@H]1CO[C@@H](CC(=O)CC(=O)c2cnn(C)c2)[C@H](O)[C@@H]1O)[C@H](C)O |  |  |  |  |  |  |  |  |  |  | 
0.13 µg/mL (≈ 0.297 µM) | 0.13 µg/mL (≈ 0.297 µM) | 0.25 µg/mL (≈ 0.571 µM) | 0.13 µg/mL (≈ 0.297 µM) | 1 µg/mL (≈ 2.29 µM) | COc1ccc(C(=O)CC(=O)C[C@@H]2OC[C@H](C[C@@H]3O[C@H]3[C@@H](C)[C@H](C)O)[C@@H](O)[C@H]2O)cn1 |  |  |  |  |  |  |  |  |  |  | 
1 µg/mL (≈ 2.42 µM) | 0.5 µg/mL (≈ 1.21 µM) | 1 µg/mL (≈ 2.42 µM) | 0.13 µg/mL (≈ 0.315 µM) | 1 µg/mL (≈ 2.42 µM) | C[C@H]([C@@H]1O[C@H]1C[C@H]1CO[C@@H](CC(=O)CC(=O)c2ccsc2)[C@H](O)[C@@H]1O)[C@H](C)O |  |  |  |  |  |  |  |  |  |  | 
1 µg/mL (≈ 2.22 µM) | 0.5 µg/mL (≈ 1.11 µM) | 0.5 µg/mL (≈ 1.11 µM) | 0.06 µg/mL (≈ 0.133 µM) | 2 µg/mL (≈ 4.45 µM) | C[C@H]([C@@H]1O[C@H]1C[C@H]1CO[C@@H](CC(=O)CC(=O)c2ccc(N(C)C)cc2)[C@H](O)[C@@H]1O)[C@H](C)O |  |  |  |  |  |  |  |  |  |  | 
0.5 µg/mL (≈ 1.23 µM) | 0.5 µg/mL (≈ 1.23 µM) | 1 µg/mL (≈ 2.46 µM) | 0.25 µg/mL (≈ 0.615 µM) | 1 µg/mL (≈ 2.46 µM) | C[C@H]([C@@H]1O[C@H]1C[C@H]1CO[C@@H](CC(=O)CC(=O)c2ccccc2)[C@H](O)[C@@H]1O)[C@H](C)O |  |  |  |  |  |  |  |  |  |  | 
1 µg/mL (≈ 2.21 µM) | 1 µg/mL (≈ 2.21 µM) | 2 µg/mL (≈ 4.43 µM) | 0.25 µg/mL (≈ 0.554 µM) | 2 µg/mL (≈ 4.43 µM) | C[C@H]([C@@H]1O[C@H]1C[C@H]1CO[C@@H](CC(=O)CC(=O)c2cnc(N(C)C)nc2)[C@H](O)[C@@H]1O)[C@H](C)O |  |  |  |  |  |  |  |  |  |  | 
1 µg/mL (≈ 2.52 µM) | 2 µg/mL (≈ 5.04 µM) | 2 µg/mL (≈ 5.04 µM) | 0.13 µg/mL (≈ 0.328 µM) | 1 µg/mL (≈ 2.52 µM) | C[C@H]([C@@H]1O[C@H]1C[C@H]1CO[C@@H](CC(=O)CC(=O)c2ccoc2)[C@H](O)[C@@H]1O)[C@H](C)O |  |  |  |  |  |  |  |  |  |  | 
0.13 µg/mL (≈ 0.301 µM) | 0.25 µg/mL (≈ 0.579 µM) | 0.5 µg/mL (≈ 1.16 µM) | 0.06 µg/mL (≈ 0.139 µM) | 2 µg/mL (≈ 4.64 µM) | C[C@H]([C@@H]1O[C@H]1C[C@H]1CO[C@@H](CC(=O)CC(=O)c2ccc(C#N)cc2)[C@H](O)[C@@H]1O)[C@H](C)O |  |  |  |  |  |  |  |  |  |  | 
0.5 µg/mL (≈ 1.22 µM) | 0.5 µg/mL (≈ 1.22 µM) | 2 µg/mL (≈ 4.87 µM) | 0.13 µg/mL (≈ 0.317 µM) | 2 µg/mL (≈ 4.87 µM) | C[C@H]([C@@H]1O[C@H]1C[C@H]1CO[C@@H](CC(=O)CC(=O)C2=CCCCC2)[C@H](O)[C@@H]1O)[C@H](C)O |  |  |  |  |  |  |  |  |  |  | 
